Experimental data from patent publication US6337341B1 (priority 1996, dated 2002).

**Q.** For `COC(=O)/C=C\c1snnc1C` [Compound No. 341, methyl (Z)-3-(4-methyl-1,2,3-thiadiazol-5-yl)-2-propenate], which melting point is on record?
**A.** The melting point was 80 to 85 °C.

**Q.** For `Cc1nnsc1-c1nnc(S)o1` [Compound No. 102, 5-(5-mercapto-1,3,4-oxadiazol-2-yl)-4-methyl-1,2,3-thiadiazole], which melting point is on record?
**A.** The melting point was 182 °C.

**Q.** Which melting point does the source give for `CSc1nnc(-c2snnc2C)o1` here?
**A.** Its melting point is 65 °C.

**Q.** With `Cc1nnsc1CS(=O)(=O)c1ccccc1` as the compound, how does the melting point read?
**A.** The melting point was 118 °C.

**Q.** Which melting point does the source give for `Cc1nnsc1CN.Cl` [Compound No. 220, 5-aminomethyl-4-methyl-1,2,3-thiadiazole hydrochloride] here?
**A.** The melting point was greater than 250 °C.

**Q.** With `COC(=O)/C=C/c1snnc1C` [Compound No. 338, methyl (E)-3-(4-methyl-1,2,3-thiadiazol-5-yl)-2-propenate] as the compound, how does the melting point read?
**A.** Its melting point is 70 °C.

**Q.** For `COC(=O)c1csc(-c2snnc2-c2ccccc2)n1`, which melting point is on record?
**A.** The melting point was 124 °C.
